As a reminder, the kon is a measure of how fast the partners come together.

Results on one compound are retold here after BindingDB's records for doi:10.1021/ml400408c (Wesleyan University, 2014).

The assay concerns the target T1, Penicillin-binding protein 4 (Bacillus subtilis (strain 168), UniProt P40750).
T1 sequence (P40750 whole entry): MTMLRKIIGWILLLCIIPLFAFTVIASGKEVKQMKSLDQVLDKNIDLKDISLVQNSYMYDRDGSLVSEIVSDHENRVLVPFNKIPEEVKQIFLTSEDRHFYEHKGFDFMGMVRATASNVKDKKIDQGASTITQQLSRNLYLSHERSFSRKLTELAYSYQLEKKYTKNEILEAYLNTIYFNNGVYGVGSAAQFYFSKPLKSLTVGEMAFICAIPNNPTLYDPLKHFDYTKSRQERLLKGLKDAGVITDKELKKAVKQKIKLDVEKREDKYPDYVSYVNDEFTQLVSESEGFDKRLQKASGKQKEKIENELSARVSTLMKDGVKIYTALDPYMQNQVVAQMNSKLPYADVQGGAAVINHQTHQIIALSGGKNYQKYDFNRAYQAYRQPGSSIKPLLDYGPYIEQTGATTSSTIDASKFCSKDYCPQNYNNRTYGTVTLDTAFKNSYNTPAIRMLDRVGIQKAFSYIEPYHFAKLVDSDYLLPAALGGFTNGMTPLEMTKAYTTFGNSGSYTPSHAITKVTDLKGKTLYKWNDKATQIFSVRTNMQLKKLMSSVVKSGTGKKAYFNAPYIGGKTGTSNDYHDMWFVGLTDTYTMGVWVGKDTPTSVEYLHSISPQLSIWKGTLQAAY
Kind of assay: Inhibition of Bacillus subtilis 168 PBP4 after 30 mins by SDS-PAGE. The note with it: read-out: kon (M-1-s-1).

For the compound `CC1(C)S[C@@H]2[C@H](NC(=O)COc3ccccc3)C(=O)N2[C@H]1C(=O)O` [Beepen-VK], the kon amounted to 19000 M⁻¹ s⁻¹.
